Measurements as given in PubChem BioAssay AID180 (DTP/NCI, 2004).
Values joined by “and” are separate entries in the source; they are usually repeats but may differ in a detail not shown here. Equal values may be shown once.

Tested on: BDF1 mice, Adenocarcinoma 755 s.c., tumor weight T/C
Assay: NCI In Vivo Anticancer Drug Screen. Data for tumor model Adenocarcinoma 755 (subcutaneous) in B6D2F1 (BDF1) mice
Details: endpoint: mean tumor weight, higher = larger tumour
How it was run: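 Transplantable tumor implanted; mice dosed with compound or vehicle; survival or tumor size recorded; ratio of treated to vehicle control reported.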

[1] = dose: 25.0 mg/kg/injection, schedule: Q01DX011 (ip), vehicle: methylcellulose (MC)
[2] = dose: 75.0 mg/kg/injection, schedule: Q01DX011 (ip), vehicle: methylcellulose (MC)

**Q.** Which T/C [1] does the source give for `CC(C)Cn1cnc2c(SCCCc3ccccc3)nc(N)nc21` here?
**A.** 72 % of control

**Q.** What about the T/C (dose: 50.0 mg/kg/injection, schedule: Q01DX011 (ip), vehicle: methylcellulose (MC)) of the same compound?
**A.** 39 % of control

**Q.** What about the T/C (dose: 100.0 mg/kg/injection, schedule: Q01DX011 (ip), vehicle: methylcellulose (MC)) of the same compound?
**A.** 10 % of control

**Q.** And the T/C (dose: 200.0 mg/kg/injection, schedule: Q01DX011 (ip), vehicle: methylcellulose (MC))?
**A.** 8 % of control

**Q.** What does the source list for `NC(CCCC(N)C(=O)O)C(=O)O` (centres undefined)?
**A.** T/C (dose: 200.0 mg/kg/injection, schedule: Q01DX011 (ip), vehicle: other): 75 % of control; T/C (dose: 400.0 mg/kg/injection, schedule: Q01DX011 (ip), vehicle: other): 77 % of control; T/C (dose: 600.0 mg/kg/injection, schedule: Q01DX011 (ip), vehicle: other): 93 % of control

**Q.** `Cc1ccc(CNc2ncnc3c2cnn3C2CCCCO2)cc1` (centres undefined) was tested. Which T/C (dose: 18.7 mg/kg/injection, schedule: Q01DX011 (ip), vehicle: methylcellulose (MC)) did it give?
**A.** 109 % of control

**Q.** And the T/C (dose: 37.5 mg/kg/injection, schedule: Q01DX011 (ip), vehicle: methylcellulose (MC))?
**A.** 35 % of control

**Q.** What about the T/C [2] of the same compound?
**A.** 88 % of control

**Q.** What about the T/C (dose: 150.0 mg/kg/injection, schedule: Q01DX011 (ip), vehicle: methylcellulose (MC)) of the same compound?
**A.** 44 % of control

**Q.** For `Cn1c(=O)c2[nH]c(/N=N/N3CCCCC3)nc2n(C)c1=O`, which T/C [1] is on record?
**A.** 61 % of control

**Q.** And the T/C [2]?
**A.** 69 % of control and 70 % of control

**Q.** How did the T/C (dose: 29.0 mg/kg/injection, schedule: Q01DX011 (ip), vehicle: carboxymethylcellulose (CMC)) turn out when `CC(=O)c1cc(C)[nH]c1C` was run?
**A.** 58 % of control

**Q.** What about the T/C (dose: 57.5 mg/kg/injection, schedule: Q01DX011 (ip), vehicle: carboxymethylcellulose (CMC)) of the same compound?
**A.** 99 % of control

**Q.** And the T/C (dose: 115.0 mg/kg/injection, schedule: Q01DX011 (ip), vehicle: carboxymethylcellulose (CMC))?
**A.** 29 % of control

**Q.** And the T/C (dose: 115.0 mg/kg/injection, schedule: Q01DX011 (ip), vehicle: methylcellulose (MC))?
**A.** 96 % of control and 77 % of control

**Q.** Which T/C (dose: 15.0 mg/kg/injection, schedule: Q01DX011 (ip), vehicle: carboxymethylcellulose (CMC)) does the source give for `Nc1ncnc2c1ncn2C(C=O)OC(C=O)CO` (centres undefined) here?
**A.** 93 % of control

**Q.** What does the source list for `S=C(N=Nc1ccccc1)NNc1ccccc1`?
**A.** T/C (dose: 50.0 mg/kg/injection, schedule: Q01DX011 (ip), vehicle: carboxymethylcellulose (CMC)): 113 % of control; T/C (dose: 75.0 mg/kg/injection, schedule: Q01DX011 (ip), vehicle: carboxymethylcellulose (CMC)): 152 % of control

**Q.** Which T/C (dose: 0.01 mg/kg/injection, schedule: Q01DX011 (sc), vehicle: steriod suspending solution) does the source give for `CC(=O)[C@@]1(O)[C@H](C)C[C@H]2[C@@H]3C=C(C)C4=Cc5c(cnn5-c5ccccc5)C[C@]4(C)[C@H]3[C@@H](O)C[C@@]21C` here?
**A.** 70 % of control

**Q.** What about the T/C (dose: 0.03 mg/kg/injection, schedule: Q01DX011 (sc), vehicle: steriod suspending solution) of the same compound?
**A.** 43 % of control

**Q.** What about the T/C (dose: 0.05 mg/kg/injection, schedule: Q01DX011 (sc), vehicle: steriod suspending solution) of the same compound?
**A.** 41 % of control

**Q.** What about the T/C (dose: 0.2 mg/kg/injection, schedule: Q01DX011 (sc), vehicle: steriod suspending solution) of the same compound?
**A.** 27 % of control and 44 % of control

**Q.** And the T/C (dose: 0.3 mg/kg/injection, schedule: Q01DX011 (sc), vehicle: steriod suspending solution)?
**A.** 14 % of control and 28 % of control

**Q.** What about the T/C (dose: 0.5 mg/kg/injection, schedule: Q01DX011 (sc), vehicle: steriod suspending solution) of the same compound?
**A.** 33 % of control

**Q.** What about the T/C (dose: 30.0 micrograms/kg/injection, schedule: Q01DX011 (ip), vehicle: saline) of the same compound?
**A.** 115 % of control

**Q.** And the T/C (dose: 60.0 micrograms/kg/injection, schedule: Q01DX011 (ip), vehicle: saline)?
**A.** 115 % of control

**Q.** What about the T/C (dose: 120.0 micrograms/kg/injection, schedule: Q01DX011 (ip), vehicle: saline) of the same compound?
**A.** 105 % of control
